We go through 47 compounds from patent publication US20120277238A1, “PHARMACEUTICAL COMPOSITION CONTAINING FUSED HETERO-RING DERIVATIVE” (Shionogi & Co., Ltd, priority 2009, published 2012).

One series concerns the target T1, human HRH4 (Homo sapiens, UniProt Q9H3N8).
T1 construct: purchased PerkinElmer
Kind of series: Histamine H4 receptor binding test ([3H]-Histamine radioligand binding). Particulars: membrane fraction of CHO-K1 expressing human HRH4; [3H]-Histamine 15 nM; Ki by Cheng-Prusoff. The method, then:
Membrane fraction of CHO-K1 stably expressing human HRH4 was purchased from PerkinElmer. Radioligand binding assay was performed in 96 well polypropylene assay plates in a total assay volume of 150 μL. Membrane suspension (15 μg of protein) was mixed with [3H]-Histamine (PerkinElmer) at 15 nM and compounds at various concentration in 50 mM Tris-HCl pH7.4, 5 mM EDTA buffer. Assays were incubated for 60 min at room temperature, then the reactions were terminated by rapid filtration over 96-well GF/B filter plates (PerkinElmer) presoaked in 0.5% polyethyleneimine. Unbound radioactivity was eliminated by six times of wash with 350 μL of ice-cold 50 mM Tris pH7.4 buffer. When the filter plates were dried, Microscint-MS liquid scintillation fluid (PerkinElmer) was added to each well and retained radioactivity plates were counted in a Topcount liquid scintillation counter (PerkinElmer). Specific binding was calculated by subtracting non-specific binding determined in the presence of 100 μM unlabeled histamine from total count.
The resulting data were analyzed for IC50 using the non-linear regression on XLfit.
Affinity values (Ki) were then determined by Cheng-Prusoff equation.

A short description of series [1]: Metabolism stability test (human). The conditions noted are these: test compound concentration 0.5 μmol/L, 30 minutes, 37° C. The series is classed as in vitro ADME. The method, then:
Using commercially available pooled human hepatic microsomes, prepared in accordance with Japanese journal of pharmacology, 33 (1), p. 41-56, February 1983, a test compound was reacted for a constant time, a remaining rate was calculated by comparing a reacted sample and an unreacted sample, thereby, a degree of metabolism in liver was assessed.
A reaction was performed (oxidative reaction) at 37° C. for 0 minute or 30 minutes in the presence of 1 mmol/L NADPH in 0.2 mL of a buffer (50 mmol/L tris-HCl pH 7.4, 150 mmol/L potassium chloride, 10 mmol/L magnesium chloride) containing 0.5 mg protein/mL of human liver microsomes. After the reaction, 50 μL of the reaction solution was added to 100 μL of a methanol/acetonitrile=1/1 (v/v), mixed and centrifuged at 3000 rpm for 15 minutes. The test compound in the supernatant was quantified by LC/MS/MS, and a remaining amount of the test compound after the reaction was calculated, letting a compound amount at 0 minute reaction time to be 100%. Hydrolysis reaction was performed in the absence of NADPH and glucuronidation reaction was in the presence of 5 mM UDP-glucuronic acid in place of NADPH, followed by similar operations.

Series [2] is described as follows: Metabolism stability test (rat). It counts as in vitro ADME. Particulars: test compound concentration 0.5 μmol/L, 30 minutes, 37° C.
The target in the next series is CYP3A4 (Homo sapiens, UniProt P08684). Nature of the series: CYP3A4 fluorescent MBI test. The series is classed as in vitro ADME. Set-up: host or cells: Escherichia coli. Particulars: prereaction 0 or 30 minutes; substrate 7-BFC; CYP3A4 expressed in Escherichia coli. The method, then:
The CYP3A4 fluorescent MBI test is a test of investigating enhancement of CYP3A4 inhibition of a compound by a metabolism reaction, and the test was performed using, as CYP3A4 enzyme expressed in Escherichia coli and employing, as an index, a reaction in which 7-benzyloxytrifluoromethylchmarin (BFC) is debenzylated by the CYP3A4 enzyme to produce a metabolite, 7-hydroxytrifluoromethylchmarin (HFC) emitting fluorescent light.
The reaction conditions were as follows: substrate, 5.6 μmol/L 7-BFC; prereaction time, 0 or 30 minutes; reaction time, 15 minutes; reaction temperature, 25° C. […]
An enzyme in a K-Pi buffer (pH 7.4) and a test drug solution as a pre-reaction solution were added to a 96-well plate at the composition of the pre-reaction, a part of it was transferred to another 96-well plate so that it was 1/10 diluted by a substrate in a K-Pi buffer, NADPH as a co-factor was added to initiate a reaction as an index (without preincubation) and, after a predetermined time of a reaction, acetonitrile/0.5 mol/L Tris(trishydroxyaminomethane)=4/1 was added to stop the reaction. […] For the plate on which each index reaction had been performed, a fluorescent value of 7-HFC which is a metabolite was measured with a fluorescent plate reader. […]

T1 sequence (Q9H3N8 whole entry): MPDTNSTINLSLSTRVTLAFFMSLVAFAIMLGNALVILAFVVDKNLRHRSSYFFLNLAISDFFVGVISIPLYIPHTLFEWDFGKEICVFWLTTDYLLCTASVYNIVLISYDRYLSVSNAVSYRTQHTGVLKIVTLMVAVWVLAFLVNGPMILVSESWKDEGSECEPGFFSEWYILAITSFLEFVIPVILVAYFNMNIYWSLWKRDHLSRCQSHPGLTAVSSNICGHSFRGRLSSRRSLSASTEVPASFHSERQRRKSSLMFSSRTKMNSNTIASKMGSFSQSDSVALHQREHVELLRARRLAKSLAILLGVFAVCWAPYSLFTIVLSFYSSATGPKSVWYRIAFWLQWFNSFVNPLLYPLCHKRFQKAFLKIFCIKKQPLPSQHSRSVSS
Chain of CYP3A4 (P08684 whole entry): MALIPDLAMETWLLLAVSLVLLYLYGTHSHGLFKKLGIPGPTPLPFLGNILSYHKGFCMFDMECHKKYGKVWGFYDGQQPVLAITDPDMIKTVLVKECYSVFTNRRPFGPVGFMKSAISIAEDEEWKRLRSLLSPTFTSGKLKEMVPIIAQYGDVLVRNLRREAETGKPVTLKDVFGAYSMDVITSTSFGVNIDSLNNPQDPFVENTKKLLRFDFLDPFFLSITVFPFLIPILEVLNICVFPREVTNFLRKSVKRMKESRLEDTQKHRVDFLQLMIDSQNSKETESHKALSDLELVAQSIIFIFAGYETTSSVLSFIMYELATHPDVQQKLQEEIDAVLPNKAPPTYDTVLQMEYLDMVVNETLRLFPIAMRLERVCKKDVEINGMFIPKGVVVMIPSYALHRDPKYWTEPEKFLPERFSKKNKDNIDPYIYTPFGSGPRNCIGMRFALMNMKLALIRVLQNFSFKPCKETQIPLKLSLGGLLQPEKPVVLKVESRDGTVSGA

Consider `CN1CCN(C(=O)c2cc3c([nH]2)CCC(=O)C3)CC1` [Compound I-016], for which, on human HRH4, the affinity corresponds to a Ki of 370 nM.

On to `CN1CCN(C(=O)c2cc3c([nH]2)[C@H]2CC[C@@H]3C2)CC1` [Compound I-046], for which the Ki (in general, the dissociation constant of the complex between target and ligand, obtained from inhibition or displacement) on human HRH4 is 290 nM. Compound `O=C(c1cc2c([nH]1)CCCC2)N1CC2CCCNC2C1` (stereo not shown) [Compound I-006] showed a Ki at human HRH4 of 230 nM.

With `CN1CCN(C(=O)c2cc3c([nH]2)CCC(Cl)C3)CC1` (stereo not shown) [Compound I-020], the affinity at human HRH4 corresponds to a Ki of 22 nM. Same read-out and setting: then `O=C(c1nc2c([nH]1)CCCC2)N1CCNCC1` [Compound I-008], with 420 nM; and `CC(C)C(=O)n1c(C(=O)N2CCN(C)CC2)cc2c1CCCC2` [Compound I-061], with 210 nM.

For the compound `CN1CCN(C(=O)c2cc3c([nH]2)CCCCC3)CC1` [Compound I-013], the Ki on human HRH4 is 300 nM. Compound `COC1c2cc(C(=O)N3CCN(C)CC3)[nH]c2CCC1(Cl)Cl` (stereo not shown) [Compound I-069] registered a Ki at human HRH4 of 220 nM. For the compound `CN1CCN(C(=O)c2cc3c([nH]2)C(O)CC3)CC1` (stereo not shown) [Compound I-012], the remaining rate is listed as 94% in series [1] and 92% in series [2]. Moreover, at human HRH4, the Ki was determined as 680 nM. The compound `CCC1(O)CCCc2cc(C(=O)N3CCN(C)CC3)[nH]c21` (stereo not shown) [Compound I-041] yielded an inhibitory constant (Ki) at human HRH4 of 590 nM. Still for that read-out and setting: with `CN1CCN(C(=O)c2cc3c([nH]2)C(=O)CCC3)CC1` [Compound I-024] the figure was 710 nM; with `C#CC1=Cc2cc(C(=O)N3CCN(C)CC3)[nH]c2CC1` [Compound I-033], 320 nM; with `O=C(c1cc2c([nH]1)CCC(F)(F)C2O)N1CCN2CCCC2C1` (stereo not shown) [Compound I-068], 520 nM.

Regarding `CC1CCc2[nH]c(C(=O)N3CCN(C)CC3)cc2C1` (stereo not shown) [Compound I-015], at human HRH4, the affinity corresponds to a Ki of 86 nM. Same read-out and setting: then `CN1CCN(C(=O)c2cc3c([nH]2)C(O)CCC3)CC1` (stereo not shown) [Compound I-036], with 88 nM. Same read-out and setting: then `CCOC1c2cc(C(=O)N3C[C@H]4CCCN[C@H]4C3)[nH]c2CCC1(F)F` (stereo partly shown) [Compound I-070], with 270 nM; and `CN1CCN(C(=O)c2cc3c([nH]2)CCC(Cl)(Cl)C3)CC1` [Compound I-047], with 14 nM; and `COC1CCc2[nH]c(C(=O)N3CCN(C)CC3)cc2C1` (stereo not shown) [Compound I-023], with 990 nM. On to `CN1CCN(C(=O)c2cc3c([nH]2)CCC3O)CC1` (stereo not shown) [Compound I-010], for which the “CYP3A4 MBI: difference between IC50 values” at CYP3A4 is “(−) (when the difference is 3 μM or less, this was defined as (−))”. Turning to `CN1CCN(C(=O)c2cc3c([nH]2)C(C)(O)CC3)CC1` (stereo not shown) [Compound I-057], affinity at human HRH4 was put at a Ki of 440 nM. Take `O=C(c1cc2c([nH]1)CCCC2)N1C[C@H]2CCCN[C@H]2C1` [Compound I-062]: the affinity on human HRH4 corresponds to a Ki of 260 nM. This Ki lies about 1.7-fold lower than the previous one. The same measure, in the same setting: with `CN1CCN(C(=O)c2cc3c([nH]2)CCC(Cl)(Cl)C3O)CC1` (stereo not shown) [Compound I-066] the figure was 350 nM; with `CN1CCN(C(=O)c2cc3c([nH]2)CCCC3O)CC1` (stereo not shown) [Compound I-051], 250 nM.

Regarding `CC1CCc2cc(C(=O)N3CCN(C)CC3)[nH]c2C1` (stereo not shown) [Compound I-017], the Ki on human HRH4 stood at 570 nM. Take `CN1CCN(C(=O)c2cc3c([nH]2)CCC=C3)CC1` [Compound I-021]: the Ki on human HRH4 was 120 nM. This Ki is about 4.8-fold lower than that of the compound before. In turn, `CN1CCN(C(=O)c2cc3c([nH]2)CCC(F)(F)C3O)CC1` (stereo not shown) [Compound I-054] had a Ki on human HRH4 of 230 nM. Still for that read-out and setting: then `CN1CCN(C(=O)c2cc3c([nH]2)CC(O)C(Cl)(Cl)C3)CC1` (stereo not shown) [Compound I-076], with 25 nM; and `CNC1CCN(C(=O)c2cc3c([nH]2)CCCC3)C1` (stereo not shown) [Compound I-003], with 680 nM; and `CN1CCN(C(=O)c2cc3c([nH]2)CCC(C(F)(F)F)C3)CC1` (stereo not shown) [Compound I-045], with 910 nM. In the case of `O=C(c1cc2c([nH]1)CCCC2)N1CCNCC1` [Compound I-005], affinity on human HRH4 was put at a Ki of 250 nM. As for `CC1CCCc2[nH]c(C(=O)N3CCN(C)CC3)cc21` (stereo not shown) [Compound I-009], the Ki on human HRH4 was determined as 150 nM. Still for that read-out and setting: then `CN1CCN(C(=O)c2cc3c([nH]2)C(C)(O)CCC3)CC1` (stereo not shown) [Compound I-040], with 180 nM. Still for that read-out and setting: then `O=C(c1cc2c([nH]1)CCC(F)(F)C2O)N1C[C@H]2CCCN[C@H]2C1` (stereo partly shown) [Compound I-064], with 180 nM. Same read-out and setting: with `CN1CCN(C(=O)c2cc3c([nH]2)CCC(c2ccccc2)=C3)CC1` [Compound I-027] the figure was 760 nM. As to `CN1CCN(C(=O)c2cc3c([nH]2)CC=C(F)C3)CC1` [Compound I-065], affinity on human HRH4 was put at a Ki of 35 nM. In turn, `CN1CCN(C(=O)c2cc3c([nH]2)CCC(C)(C)C3)CC1` [Compound I-022] registered a Ki at human HRH4 of 70 nM. As to `Cc1ccc(S(=O)(=O)OC2CCc3[nH]c(C(=O)N4CCN(C)CC4)cc3C2)cc1` (stereo not shown) [Compound I-019], the Ki at human HRH4 stood at 200 nM. This Ki is about 2.9-fold higher than that of the compound before. On the same count and under the same terms, with `CN1CCN(C(=O)c2cc3c([nH]2)CCC(F)C3O)CC1` (stereo not shown) [Compound I-053] the figure was 140 nM; with `CN1CCN(C(=O)c2cc3c([nH]2)CCOC3)CC1` [Compound I-052], 380 nM; with `O=C(c1cc2c([nH]1)CCC(Cl)(Cl)C2)N1CCNCC1` [Compound I-055], 23 nM. Same read-out and setting: then `CC1CCCc2cc(C(=O)N3CCN(C)CC3)[nH]c21` (stereo not shown) [Compound I-026], with 100 nM; and `CN1CCN(C(=O)c2nc3c([nH]2)CCCC3)CC1` [Compound I-049], with 150 nM; and `CN1CCN(C(=O)c2cc3c([nH]2)CCCC3)CC1` [Compound I-048], with 110 nM.

`O=C(c1cc2c([nH]1)CCC(F)(F)C2)N1CCNCC1` [Compound I-056] displayed a Ki at human HRH4 of 130 nM.

With `COC1c2cc(C(=O)N3CCNCC3)[nH]c2CCC1(Cl)Cl` (stereo not shown) [Compound I-067], on human HRH4, the Ki amounted to 480 nM.

Turning to `CC(=O)n1c(C(=O)N2CCN(C)CC2)cc2c1CCCC2` [Compound I-059], the Ki at human HRH4 was 270 nM. Same read-out and setting: with `CN1CCN(C(=O)c2cc3c([nH]2)CC(O)CC3)CC1` (stereo not shown) [Compound I-075] the figure was 20 nM.
